Test results: patent US5043165A, “Novel liposome composition for sustained release of steroidal drugs” (priority 1988, dated 1991)
“Also recorded” adds a separate entry of the source. Each block holds one molecule with its values, some of them ahead of it.

Experiments:
[1] = Intrathecal administration: drug in cranial and spinal compartments and cerebrospinal fluid; settings: 50 ul, 20 mg/ml
[2] = Plasma pharmacokinetics of 14C-BDP after i.v. injection or intratracheal instillation; type: in vivo, male Sprague-Dawley rats; settings: rat
Method: In order to determine the rate of absorption of the steroidal drug into the plasma after intratracheal administration, various formulations containing either the free steroid or steroid encapsulated in liposomes were prepared and tested.
The free drug control was administered intravenously to provide relative basis for measurement of bioavailability. […] The resulting plasma profiles, given in FIG. 1, illustrate the physiological removal of steroid from the blood circulation. […] As will be seen from FIG. 2, the rate of absorption of free steroid from lungs to the plasma is rapid and the physiological removal from the plasma follows the same course as that of the free drug. […] Thus, the rate of absorption from lungs to plasma of free steroid and steroid encapsulated in conventional liposomes is not much different and follows similar curve.
Plasma and lung levels of radiolabel were measured as previously described. The decrease in plasma concentration versus time following free drug administration was biphasic (FIG. 4).

[3] = TLC assay of lung samples for metabolism of BDP before absorption; type: in vivo, rats; settings: thin layer chromatographic assay
[4] = Partition coefficient between octanol and phosphate buffer saline; type: physicochemical; settings: pH 7.4
[5] = rat, in vivo
[6] = in vivo; cited from earlier work
[7] = mouse, in vivo, iv

Compound: C[C@]12CCC(=O)C=C1CC[C@@H]1[C@@H]2C(=O)C[C@@]2(C)[C@H]1CC[C@]2(O)C(=O)CO [free cortisone, cortisone]
- time to almost complete disappearance from cranial or spinal compartments [1]: ≤ 2.8 h
- time to elimination from cerebrospinal fluid [1]: ≤ 2.8 h

- plasma kinetics (in words) ([2]; compared with free drug): biphasic
- BDP associated with the octanol (octanol/phosphate buffer saline partition) [4]: 95%
- apparent half-life in lungs (elimination of radiolabel already released, not absorption) [5]: 3.0 h
- drug absorbed before the first time point [5]: over 98%
- radiolabel removed/absorbed from the lungs ([5]; iv): 99.7%
Compound: CCC(=O)OCC(=O)[C@@]1(OC(=O)CC)[C@@H](C)C[C@H]2[C@@H]3CCC4=CC(=O)C=C[C@]4(C)[C@@]3(Cl)[C@@H](O)C[C@@]21C [BDP, beclomethasone dipropionate]
- absorption from lungs (in words) ([2]; intratracheal instillation, listed as free BDP): rapid; also recorded: quickly removed from the lungs into plasma
- metabolism of BDP prior to leaving the lungs [3]: no detectable metabolism of BDP prior to leaving the lungs
- secondary adverse reactions [6]: localized infection of the mouth and pharynx with Candida albicans or Aspergillus niger, hoarseness and dry mouth

- persistence in plasma [7]: disappears rapidly from the plasma
Compound: C[C@H]1C[C@H]2[C@@H]3CCC4=CC(=O)C=C[C@]4(C)[C@@]3(Cl)[C@@H](O)C[C@]2(C)[C@@]1(O)C(=O)CO [Free beclomethasone, beclomethasone]
